Calls of active or inactive are those of the source. The rule behind the calls is not given here.

In this data set the test system is CCRIS mutagenicity, Ames/micronucleus/aberration tests. Put plainly: CCRIS mutagenicity studies.
Setting [1] is: Test System: AMES SALMONELLA TYPHIMURIUM, Strain/Indicator: TA98, Metabolic Activation: HAMSTER, LIVER, S-9, AROCLOR 1254 (10%), Method: PREINCUBATION
The mark [2] stands for this setting: Test System: AMES SALMONELLA TYPHIMURIUM, Strain/Indicator: TA98, Metabolic Activation: NONE, Method: PREINCUBATION
[3] abbreviates: Test System: AMES SALMONELLA TYPHIMURIUM, Strain/Indicator: TA98, Metabolic Activation: RAT, LIVER, S-9, AROCLOR 1254 (10%), Method: PREINCUBATION
Where [4] appears, read: Test System: AMES SALMONELLA TYPHIMURIUM, Strain/Indicator: TA100, Metabolic Activation: HAMSTER, LIVER, S-9, AROCLOR 1254 (10%), Method: PREINCUBATION
Setting [5] is: Test System: AMES SALMONELLA TYPHIMURIUM, Strain/Indicator: TA100, Metabolic Activation: NONE, Method: PREINCUBATION
Setting [6] is: Test System: AMES SALMONELLA TYPHIMURIUM, Strain/Indicator: TA100, Metabolic Activation: RAT, LIVER, S-9, AROCLOR 1254 (10%), Method: PREINCUBATION
The mark [7] stands for this setting: Test System: AMES SALMONELLA TYPHIMURIUM, Strain/Indicator: TA1535, Metabolic Activation: HAMSTER, LIVER, S-9, AROCLOR 1254 (10%), Method: PREINCUBATION
Where [8] appears, read: Test System: AMES SALMONELLA TYPHIMURIUM, Strain/Indicator: TA1535, Metabolic Activation: NONE, Method: PREINCUBATION
Setting [9] is: Test System: AMES SALMONELLA TYPHIMURIUM, Strain/Indicator: TA1535, Metabolic Activation: RAT, LIVER, S-9, AROCLOR 1254 (10%), Method: PREINCUBATION
Setting [10] is: Test System: AMES SALMONELLA TYPHIMURIUM, Strain/Indicator: TA1537, Metabolic Activation: HAMSTER, LIVER, S-9, AROCLOR 1254 (10%), Method: PREINCUBATION
Where [11] appears, read: Test System: AMES SALMONELLA TYPHIMURIUM, Strain/Indicator: TA1537, Metabolic Activation: NONE, Method: PREINCUBATION
[12] abbreviates: Test System: AMES SALMONELLA TYPHIMURIUM, Strain/Indicator: TA1537, Metabolic Activation: RAT, LIVER, S-9, AROCLOR 1254 (10%), Method: PREINCUBATION
Setting [13] is: Test System: AMES SALMONELLA TYPHIMURIUM, Strain/Indicator: TA100, Metabolic Activation: NONE, Method: STANDARD PLATE.

For `CCCCCC(N)=O`, the mutagenic call under setting [1] was “inactive; negative”; the mutagenic call under setting [2] is “inactive; negative”; the mutagenic call under setting [3] was “inactive; negative”; the mutagenic call under setting [4] is “inactive; negative”; the mutagenic call under setting [5] is “inactive; negative”; the mutagenic call under setting [6] is “inactive; negative”. The mutagenic call is, setting by setting: under setting [7], “inactive; negative”; under setting [8], “inactive; negative”; under setting [9], “inactive; negative”; under setting [10], “inactive; negative”; under setting [11], “inactive; negative”; under setting [12], “inactive; negative”.

As to `O=Cc1ccc(C(=O)ON(OCc2ccccc2)C(=O)c2ccccc2)cc1`, the mutagenic call under setting [13] is “active; positive” and the mutagenic call (Test System: AMES SALMONELLA TYPHIMURIUM, Strain/Indicator: TA100, Metabolic Activation: RAT, S-9, AROCLOR, Method: STANDARD PLATE) was “active; positive”.

Turning to `CCN(CC)c1ccc2nc3ccc(=[N+](CC)CC)cc-3oc2c1`, the mutagenic call reads like this: (Test System: AMES SALMONELLA TYPHIMURIUM, Strain/Indicator: TA98, Metabolic Activation: HAMSTER, LIVER, S-9, AROCLOR 1254 (10%), Method: STANDARD PLATE) “inactive; negative”; (Test System: AMES SALMONELLA TYPHIMURIUM, Strain/Indicator: TA98, Metabolic Activation: NONE, Method: STANDARD PLATE) “active; positive”; (Test System: AMES SALMONELLA TYPHIMURIUM, Strain/Indicator: TA98, Metabolic Activation: RAT, LIVER, S-9, AROCLOR 1254 (10%), Method: STANDARD PLATE) “inactive; negative”; (Test System: AMES SALMONELLA TYPHIMURIUM, Strain/Indicator: TA100, Metabolic Activation: HAMSTER, LIVER, S-9, AROCLOR 1254 (10%), Method: STANDARD PLATE) “inactive; negative”; under setting [13], “inactive; negative”; (Test System: AMES SALMONELLA TYPHIMURIUM, Strain/Indicator: TA100, Metabolic Activation: RAT, LIVER, S-9, AROCLOR 1254 (10%), Method: STANDARD PLATE) “inactive; negative”. The mutagenic call was “inactive; negative” (Test System: Ames Salmonella typhimurium, Strain/Indicator: TA98, Metabolic Activation: None, Method: Preincubation); “inactive; negative” (Test System: Ames Salmonella typhimurium, Strain/Indicator: TA98, Metabolic Activation: Rat, Liver, S-9, Aroclor 1254, Method: Preincubation); “inactive; negative” (Test System: Ames Salmonella typhimurium, Strain/Indicator: TA100, Metabolic Activation: None, Method: Preincubation); “inactive; negative” (Test System: Ames Salmonella typhimurium, Strain/Indicator: TA100, Metabolic Activation: Rat, Liver, S-9, Aroclor 1254, Method: Preincubation); “inactive; negative” (Test System: Ames Salmonella typhimurium, Strain/Indicator: TA102, Metabolic Activation: None, Method: Preincubation); “inactive; negative” (Test System: Ames Salmonella typhimurium, Strain/Indicator: TA102, Metabolic Activation: Rat, Liver, S-9, Aroclor 1254, Method: Preincubation). The mutagenic call was “inactive; negative” (Test System: Ames Salmonella typhimurium, Strain/Indicator: TA1535, Metabolic Activation: None, Method: Preincubation); “inactive; negative” (Test System: Ames Salmonella typhimurium, Strain/Indicator: TA1535, Metabolic Activation: Rat, Liver, S-9, Aroclor 1254, Method: Preincubation); “active; positive. reevaluation of results: positive” (Test System: MOUSE LYMPHOMA, Strain/Indicator: L5178Y (TK+/TK-), Metabolic Activation: NONE, Method: SUSPENSION/PLATE); “active; positive. reevaluation of results: positive” (Test System: MOUSE LYMPHOMA, Strain/Indicator: L5178Y (TK+/TK-), Metabolic Activation: RAT, LIVER, S-9, AROCLOR 1254, Method: SUSPENSION/PLATE).

As to `CCc1ccccc1N`, the mutagenic call was “inactive; negative” under setting [2]; “inactive; negative” (Test System: AMES SALMONELLA TYPHIMURIUM, Strain/Indicator: TA98, Metabolic Activation: S-9, Method: PREINCUBATION); “inactive; negative” under setting [5]; “inactive; negative” (Test System: AMES SALMONELLA TYPHIMURIUM, Strain/Indicator: TA100, Metabolic Activation: S-9, Method: PREINCUBATION); “inactive; negative” (Test System: UDS RODENT HEPATOCYTES, Strain/Indicator: THY INCORP (NON-S-PHASE), Metabolic Activation: NONE, Method: AUTORADIOGRAPHY).

Regarding `[Cl][Pd][Cl]`, the mutagenic call is, setting by setting: under setting [1], “inactive; negative”; under setting [2], “inactive; negative”; under setting [3], “inactive; negative”; under setting [4], “inactive; negative”; under setting [5], “inactive; negative”; under setting [6], “inactive; negative”. The mutagenic call runs as follows: under setting [7], “inactive; negative”; under setting [8], “inactive; negative”; under setting [9], “inactive; negative”; under setting [10], “inactive; negative”; under setting [11], “inactive; negative”; under setting [12], “inactive; negative”.

The values above are taken from PubChem BioAssay AID1259407 (Chemical Carcinogenesis Research Information System (CCRIS), 2018).
